Measurements from ChEMBL document CHEMBL1201862, “PubChem BioAssay data set” (2004).
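In this assay, cells in 96-well plates receive the compound at five concentrations for 48 hours. Endpoints are linearly interpolated between the surrounding concentrations. GI50: concentration for 50% inhibition of growth.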 Activity calls are given as the source filed them. Cut-off read from the data, not from the text of the source: active = GI50 up to about 1.1 µM and inactive = higher.

Key:
Test in all cases: NCI anticancer screen, dose series, 48 h
786-0 = system: 786-0
A498 = system: A498
A549 = system: A549
ACHN = system: ACHN
BT-549 = system: BT-549
CAKI-1 = system: CAKI-1
CCRF-CEM = system: CCRF-CEM
COLO 205 = system: COLO 205
DU-145 = system: DU-145
EKVX = system: EKVX
HCC 2998 = system: HCC 2998
HCT-116 = system: HCT-116
HCT-15 = system: HCT-15
HL-60 = system: HL-60
HOP-62 = system: HOP-62
HOP-92 = system: HOP-92
HT-29 = system: HT-29
Hs-578T = system: Hs-578T
K562 = system: K562
KM12 = system: KM12
LOX IMVI = system: LOX IMVI
M14 = system: M14
MCF7 = system: MCF7
MDA-MB-231 = system: MDA-MB-231
MDA-MB-435 = system: MDA-MB-435
MDA-N = system: MDA-N
MOLT-4 = system: MOLT-4
Malme-3M = system: Malme-3M
NCI-H226 = system: NCI-H226
NCI-H23 = system: NCI-H23
NCI-H460 = system: NCI-H460
NCI/ADR-RES = system: NCI/ADR-RES
OVCAR-3 = system: OVCAR-3
OVCAR-4 = system: OVCAR-4
OVCAR-5 = system: OVCAR-5
OVCAR-8 = system: OVCAR-8
PC-3 = system: PC-3
RPMI-8226 = system: RPMI-8226
RXF 393 = system: RXF 393
SF-268 = system: SF-268
SF-295 = system: SF-295
SF-539 = system: SF-539
SK-MEL-28 = system: SK-MEL-28
SK-MEL-2 = system: SK-MEL-2
SK-MEL-5 = system: SK-MEL-5
SK-OV-3 = system: SK-OV-3
SN12C = system: SN12C
SNB-19 = system: SNB-19
SNB-75 = system: SNB-75
SW-620 = system: SW-620
T47D = system: T47D
TK-10 = system: TK-10
U-251 = system: U-251
UACC-257 = system: UACC-257
UACC-62 = system: UACC-62
UO-31 = system: UO-31

For `CC(Cl)CC(=O)OCC1CCCN2CCCCC12` (stereo unspecified), the GI50 (786-0) was > 100 µM (inactive), the GI50 (A498) was > 100 µM (inactive) and the GI50 (A549) was > 100 µM (inactive). For the same molecule, the GI50 (ACHN) was > 100 µM (inactive), the GI50 (BT-549) was > 100 µM (inactive) and the GI50 (CAKI-1) was > 100 µM (inactive). For the same molecule, the GI50 (CCRF-CEM) was > 100 µM (inactive), the GI50 (COLO 205) was > 100 µM (inactive) and the GI50 (DU-145) was > 100 µM (inactive). For the same molecule, the GI50 (EKVX) was > 100 µM (inactive), the GI50 (HCC 2998) was > 100 µM (inactive) and the GI50 (HCT-116) was > 100 µM (inactive). The GI50 (HCT-15) was greater than 100 µM, the GI50 (HL-60) was 54.7 µM (inactive) and the GI50 (HOP-62) was > 100 µM (inactive). The GI50 (HOP-92) was > 100 µM (inactive), the GI50 (HT-29) was > 100 µM (inactive) and the GI50 (Hs-578T) was > 100 µM (inactive). The GI50 (K562) was > 100 µM (inactive), the GI50 (KM12) was > 100 µM (inactive) and the GI50 (LOX IMVI) was > 100 µM (inactive). For the same molecule, the GI50 (M14) was > 100 µM (inactive), the GI50 (MCF7) was > 100 µM (inactive) and the GI50 (MDA-MB-231) was > 100 µM (inactive). The GI50 (MDA-MB-435) was > 100 µM (inactive), the GI50 (MDA-N) was > 100 µM (inactive) and the GI50 (MOLT-4) was > 100 µM (inactive). The GI50 (Malme-3M) was > 100 µM (inactive), the GI50 (NCI-H226) was > 100 µM (inactive) and the GI50 (NCI-H23) was > 100 µM (inactive). For the same molecule, the GI50 (NCI-H460) was > 100 µM (inactive), the GI50 (NCI/ADR-RES) was > 100 µM (inactive) and the GI50 (OVCAR-3) was > 100 µM (inactive). The GI50 (OVCAR-4) was > 100 µM (inactive), the GI50 (OVCAR-5) was > 100 µM (inactive) and the GI50 (OVCAR-8) was > 100 µM (inactive). For the same molecule, the GI50 (PC-3) was > 100 µM (inactive), the GI50 (RPMI-8226) was > 100 µM (inactive) and the GI50 (RXF 393) was > 100 µM (inactive). The GI50 (SF-268) was > 100 µM (inactive), the GI50 (SF-295) was > 100 µM (inactive) and the GI50 (SF-539) was > 100 µM (inactive). For the same molecule, the GI50 (SK-MEL-28) was > 100 µM (inactive), the GI50 (SK-MEL-2) was > 100 µM (inactive) and the GI50 (SK-MEL-5) was > 100 µM (inactive). The GI50 (SK-OV-3) was > 100 µM (inactive), the GI50 (SN12C) was > 100 µM (inactive) and the GI50 (SNB-19) was > 100 µM (inactive). For the same molecule, the GI50 (SNB-75) was > 100 µM (inactive), the GI50 (SW-620) was > 100 µM (inactive) and the GI50 (T47D) was > 100 µM (inactive). The GI50 (TK-10) was > 100 µM (inactive), the GI50 (U-251) was > 100 µM (inactive) and the GI50 (UACC-257) was > 100 µM (inactive). For the same molecule, the GI50 (UACC-62) was > 100 µM (inactive) and the GI50 (UO-31) was > 100 µM (inactive).
